Reference: US7678809B2 (priority 1999, dated 2010)

Assays:
Type in all cases: biochemical
[1] = target: T1, human opioid receptor-like receptor (ORL-1) (Homo sapiens, UniProt P41146); conditions: read-out: Nociceptin Affinity calc Ki
T1 construct: host or cells: HEK-293

[2] = target: Mu opioid receptor (Homo sapiens, UniProt P35372); conditions: read-out: calc Ki (nM) μ
[3] = target: kappa opioid receptor (Homo sapiens, UniProt P41145); conditions: read-out: calc Ki (nM) k
[4] = target: delta opioid receptor (Homo sapiens, UniProt P41143); conditions: read-out: calc Ki (nM) δ2
delta opioid receptor, sequence (P41143 whole entry): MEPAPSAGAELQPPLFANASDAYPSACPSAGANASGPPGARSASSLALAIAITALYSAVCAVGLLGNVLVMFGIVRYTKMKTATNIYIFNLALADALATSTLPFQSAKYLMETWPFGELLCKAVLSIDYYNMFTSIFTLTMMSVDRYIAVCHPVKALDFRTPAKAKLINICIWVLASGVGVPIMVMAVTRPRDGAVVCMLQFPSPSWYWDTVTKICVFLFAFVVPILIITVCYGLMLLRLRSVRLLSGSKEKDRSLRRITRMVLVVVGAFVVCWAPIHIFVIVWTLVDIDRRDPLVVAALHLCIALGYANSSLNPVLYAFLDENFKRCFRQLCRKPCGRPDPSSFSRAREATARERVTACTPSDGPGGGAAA

T1 sequence (P41146 whole entry): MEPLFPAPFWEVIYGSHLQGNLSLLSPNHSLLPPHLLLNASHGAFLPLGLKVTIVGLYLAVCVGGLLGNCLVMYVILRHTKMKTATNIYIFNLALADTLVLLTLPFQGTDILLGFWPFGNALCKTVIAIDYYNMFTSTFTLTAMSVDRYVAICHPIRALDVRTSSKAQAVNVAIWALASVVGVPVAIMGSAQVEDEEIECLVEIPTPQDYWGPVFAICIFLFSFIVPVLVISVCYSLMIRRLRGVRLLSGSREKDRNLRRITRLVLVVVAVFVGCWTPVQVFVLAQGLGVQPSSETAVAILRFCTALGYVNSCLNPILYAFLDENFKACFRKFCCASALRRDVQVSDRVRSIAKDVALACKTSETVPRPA
Mu opioid receptor, sequence (P35372 whole entry): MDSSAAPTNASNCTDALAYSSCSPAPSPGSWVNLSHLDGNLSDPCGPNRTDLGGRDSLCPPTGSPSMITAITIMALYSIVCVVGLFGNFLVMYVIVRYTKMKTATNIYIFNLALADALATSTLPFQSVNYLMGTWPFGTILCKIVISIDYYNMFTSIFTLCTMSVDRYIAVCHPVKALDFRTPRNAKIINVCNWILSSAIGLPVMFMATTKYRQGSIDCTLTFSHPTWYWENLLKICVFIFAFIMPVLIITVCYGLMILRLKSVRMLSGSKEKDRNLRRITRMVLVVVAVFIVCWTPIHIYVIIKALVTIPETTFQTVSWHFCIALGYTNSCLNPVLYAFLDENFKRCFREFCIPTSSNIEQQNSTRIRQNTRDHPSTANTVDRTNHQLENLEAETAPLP
kappa opioid receptor, sequence (P41145 whole entry): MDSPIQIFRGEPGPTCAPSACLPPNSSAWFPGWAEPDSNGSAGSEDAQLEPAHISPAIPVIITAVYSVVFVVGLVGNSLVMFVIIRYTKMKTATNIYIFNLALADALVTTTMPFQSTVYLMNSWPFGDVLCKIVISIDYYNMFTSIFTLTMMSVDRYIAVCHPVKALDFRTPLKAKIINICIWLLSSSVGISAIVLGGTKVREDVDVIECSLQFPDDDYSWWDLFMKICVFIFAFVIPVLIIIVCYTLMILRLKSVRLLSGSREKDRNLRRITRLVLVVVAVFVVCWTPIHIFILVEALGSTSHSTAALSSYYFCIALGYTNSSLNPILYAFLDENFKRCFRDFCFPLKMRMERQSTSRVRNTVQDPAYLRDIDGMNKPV

“1-[4-(4-propyl-1,2-cyclohexene)-4-piperidinyl]-1,3-dihydro-2H-1,3-benzamidazol-2-one” showed a Ki [1] of 469 nM, a Ki [2] of 265 nM and a Ki [3] of 1500 nM. The Ki [4] was 1220 nM.
Molecule “1-[4-(4-propylcyclohexane)-4-piperidinyl]-3-[1-oxo-ethyl]-1,3-dihydro-2H-1,3-benzamidazol-2-one” has a Ki [1] of 464 nM, a Ki [2] of 23.2 nM and a Ki [3] of 1600 nM. It also gave a Ki [4] greater than 10000 nM.
`O=c1[nH]c2ccccc2n1C1CCN(CCCC(c2ccc(F)cc2)c2ccc(F)cc2)CC1` [1-[4-(4,4-difluorophenylbutyl)-4-piperidinyl]-1,3-dihydro-2H-1,3-benzamidazol-2-one] showed a Ki [1] of 420 nM.
